Values of other authors as cited in patent publication US9981895B1 (Parnative, Inc., priority 2015, dated 2018).

What was measured:
HeLa cell line = conditions: MTT assay, Abbott et al. 2010
RAW 264.7 cell line = conditions: MTT assay, Abbott et al. 2010
[1] = TBARS assay; CPC-purified compounds; Abbott et al. 2010

5-RE)-2-(4-hydroxyphenyl) ethenyl]-2-[(1E)-2-phenylprop-1-en-1-yl]benzene-1,3-diol [arachidin-3]
concentration at which cytotoxicity was demonstrated (HeLa cell line): 55 µM
concentration at which cytotoxicity was demonstrated (RAW 264.7 cell line): 55 µM
dose at which oxidation was inhibited [1]: 14 µM

CC(C)/C=C/c1c(O)cc(/C=C/c2ccc(O)c(O)c2)cc1O [arachidin-1]
concentration at which cytotoxicity was demonstrated (HeLa cell line): 27 µM
concentration at which cytotoxicity was demonstrated (RAW 264.7 cell line): 27 µM
dose at which oxidation was inhibited [1]: 7 µM
